IC50 data for 22 compounds are collected here from patent publication US9321756B2, “Azole compounds as PIM inhibitors” (priority 2011, dated 2016).

The structures appear in SMILES notation. Like-named read-outs stand apart in the source and are kept apart here. Some results are limits rather than exact numbers.

Common to all, as to type: biochemical
The target of assay [1] is full length recombinant Pim-1 (Homo sapiens (Human), UniProt P11309). As to the kind of experiment: Pim enzyme assay (HTRF, phosphorylation of biotinylated-BAD (S112) peptide), Pim-1. Conditions: Pim-1 enzyme assay; read-out: Pim_1_IC50. A general note: TR-FRET usually uses a lanthanide donor and a delayed reading to cut background.
Assay [2] has as its target full length recombinant Pim-2 (Homo sapiens (Human), UniProt Q9P1W9). Description: Pim enzyme assay (HTRF, phosphorylation of biotinylated-BAD (S112) peptide), Pim-2. The note with it: read-out: Pim2_IC50.
The target of assay [3] is full length recombinant Pim-3 (Homo sapiens (Human), UniProt Q86V86). As to the kind of experiment: Pim enzyme assay (HTRF, phosphorylation of biotinylated-BAD (S112) peptide), Pim-3. Conditions: read-out: Pim3 IC50. An excerpt: Pim-3 was purchased from Millipore (UK).
The phosphorylation of biotinylated-BAD (S112) peptide by full length recombinant Pim-1, Pim-2, or Pim-3 protein was detected with streptavidin:Allophycocyanin (APC) conjugate and a europium (Eu) labeled antibody directed against phosphorylated-BAD (S112). […] The fluorescence is directly proportional to the amount of phosphorylated BAD peptide present in the reaction.
A reference compound was included on each assay plate in order to validate that plate; on one plate of every assay run, two additional reference compounds were included.
The final buffer conditions were as follows: 60 mM Hepes, pH 7.0, 0.05% BSA, 2 mM DTT. Incubations were carried out at RT (22° C.) for 2 h for Pim-1, 1 h and 30 min for Pim-3, and 45 min for Pim-2. The reaction was then stopped by the addition of 3 mM EDTA, and fluorescence was measured by an HTRF® Rubystar microplate reader. For each plate, percent of control (POC) values were calculated for each well. Values for the IC50 IP were estimated using a standard 4-parameter logistic model.

Sequence of full length recombinant Pim-1 (P11309 whole entry): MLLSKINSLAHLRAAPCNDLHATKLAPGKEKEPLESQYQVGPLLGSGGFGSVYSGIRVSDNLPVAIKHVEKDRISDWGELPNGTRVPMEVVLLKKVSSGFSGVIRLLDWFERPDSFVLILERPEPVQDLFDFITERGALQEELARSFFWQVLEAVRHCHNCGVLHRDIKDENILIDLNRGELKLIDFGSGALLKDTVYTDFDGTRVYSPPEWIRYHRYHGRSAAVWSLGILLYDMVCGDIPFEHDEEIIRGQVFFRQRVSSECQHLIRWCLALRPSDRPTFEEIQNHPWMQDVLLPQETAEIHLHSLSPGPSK
Sequence of full length recombinant Pim-2 (Q9P1W9 whole entry): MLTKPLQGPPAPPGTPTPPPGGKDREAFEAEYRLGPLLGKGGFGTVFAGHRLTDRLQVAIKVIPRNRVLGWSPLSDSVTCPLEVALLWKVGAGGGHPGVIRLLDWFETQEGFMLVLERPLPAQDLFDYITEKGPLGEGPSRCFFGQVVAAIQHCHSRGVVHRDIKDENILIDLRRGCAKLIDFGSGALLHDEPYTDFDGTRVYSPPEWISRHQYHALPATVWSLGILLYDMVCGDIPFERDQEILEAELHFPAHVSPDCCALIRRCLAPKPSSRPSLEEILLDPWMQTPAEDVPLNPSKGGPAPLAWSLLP

As to `C[C@H]1CCCCN1c1nc(-c2c[nH]c3ccc(-c4nnc(N)s4)cc23)cs1` (stereo in doubt) [Example 184, 5-(3-(2-(2-methyl-1-piperidinyl)-1,3-thiazol-4-yl)-1H-indol-5-yl)-1,3,4-thiadiazol-2-amine], the values for the IC50 in assay [1], in assay [2] (Pim-2 enzyme assay) and in assay [3] (Pim-3 enzyme assay) were 161 nM, 602 nM and 94.7 nM, respectively.

As to `Nc1nnc(-c2ccc3[nH]cc(-c4cncc(-c5ccc(F)cc5)n4)c3c2)o1` [Example 7, 5-(3-(6-(4-fluorophenyl)pyrazin-2-yl)-1H-indol-5-yl)-1,3,4-oxadiazol-2-amine], the IC50 in assay [1] was 28.8 nM; in assay [2] (Pim-2 enzyme assay), 42.5 nM; in assay [3] (Pim-3 enzyme assay) it was 19.7 nM.

`COc1cncc(-c2c[nH]c3ccc(-c4nnc(N)o4)nc23)c1` [Example 10, 5-(3-(5-methoxypyridin-3-yl)-1H-pyrrolo[3,2-b]pyridin-5-yl)-1,3,4-oxadiazol-2-amine]: the IC50 amounted to 1130 nM in assay [1], 570 nM in assay [2] (Pim-2 enzyme assay) and 642 nM in assay [3] (Pim-3 enzyme assay).

Regarding `Nc1ncc(-c2ccc3[nH]cc(-c4cnc5ccccc5c4)c3c2)s1` [Example 20, 5-(3-(quinolin-3-yl)-1H-indol-5-yl)thiazol-2-amine], the figures for the IC50 in assay [1], in assay [2] and in assay [3] (Pim-3 enzyme assay) were 281 nM, 2710 nM and 267 nM, respectively.

Take `Nc1nnc(-c2ccc3[nH]cc(-c4cnc5ccccc5c4)c3c2)s1` [Example 21, 5-(3-(quinolin-3-yl)-1H-indol-5-yl)-1,3,4-thiadiazol-2-amine]: the IC50 in assay [1] is 178 nM; in assay [2] (Pim-2 enzyme assay), 1010 nM; in assay [3] (Pim-3 enzyme assay) it was 179 nM.

Consider `CNc1nnc(-c2ccc3[nH]cc(-c4cccc(-c5ccccc5)c4)c3c2)s1` [Example 22, 5-(3-(biphenyl-3-yl)-1H-indol-5-yl)-N-methyl-1,3,4-thiadiazol-2-amine], for which the IC50 is 2800 nM in assay [1], above 3000 nM in assay [2] (Pim-2 enzyme assay) and 1470 nM in assay [3] (Pim-3 enzyme assay).

Consider `CNc1nnc(-c2ccc3[nH]cc(-c4ccc(F)cc4F)c3c2)s1` [Example 23, 5-(3-(2,4-difluorophenyl)-1H-indol-5-yl)-N-methyl-1,3,4-thiadiazol-2-amine], for which the IC50 came out at 423 nM in assay [1], 1550 nM in assay [2] (Pim-2 enzyme assay) and 136 nM in assay [3] (Pim-3 enzyme assay).

Take `Cc1nnc2n1CCN(c1cccc(-c3c[nH]c4ccc(-c5nnc(N)s5)cc34)n1)C2` [Example 25, 5-(3-(6-(3-methyl-5,6-dihydro-[1,2,4]triazolo[4,3-a]pyrazin-7(8H)-yl)pyridin-2-yl)-1H-indol-5-yl)-1,3,4-thiadiazol-2-amine 2,2,2-trifluoroacetate]: the IC50 in assay [1] came out at 17.5 nM; in assay [2] (Pim-2 enzyme assay), 88.7 nM; in assay [3] (Pim-3 enzyme assay), 3.02 nM.

For the compound `Oc1nnc(-c2ccc3[nH]cc(-c4ccc(F)cc4F)c3c2)s1` [Example 26, 5-(3-(2,4-difluorophenyl)-1H-indol-5-yl)-1,3,4-thiadiazol-2-ol], the IC50 in assay [1] was 2000 nM; in assay [2] (Pim-2 enzyme assay), above 3000 nM; in assay [3] (Pim-3 enzyme assay), 795 nM.

`Brc1nnc(-c2ccc3[nH]cc(-c4cccc(N5CCOCC5)n4)c3c2)s1` [Example 27, 4-(6-(5-(5-bromo-1,3,4-thiadiazol-2-yl)-1H-indol-3-yl)pyridin-2-yl)morpholine]: the IC50 in assay [1] is 1310 nM; in assay [2] (Pim-2 enzyme assay), above 3000 nM; in assay [3] (Pim-3 enzyme assay), 399 nM.

Take `COc1ccc(CNc2nnc(-c3ccc4[nH]cc(-c5cncc(C6CC6)n5)c4c3)o2)cc1` [Example 36, 5-(3-(6-Cyclopropylpyrazin-2-yl)-1H-indol-5-yl)-N-(4-methoxybenzyl)-1,3,4-oxadiazol-2-amine 2,2,2-trifluoroacetate]: the IC50 stood at 43 nM in assay [1], 212 nM in assay [2] (Pim-2 enzyme assay) and 11.4 nM in assay [3] (Pim-3 enzyme assay).

For `O=c1[nH]nc(-c2ccc3[nH]cc(-c4cncc(C5CC5)n4)c3c2)o1` [Example 38, 5-(3-(6-Cyclopropylpyrazin-2-yl)-1H-indol-5-yl)-1,3,4-oxadiazol-2(3H)-one 2,2,2-trifluoroacetate], the IC50 in assay [1] was 65.5 nM; in assay [2], 54.5 nM; in assay [3] it was 37.7 nM.

For `c1cc(-c2nnc(-c3ccc4[nH]cc(-c5cncc(C6CC6)n5)c4c3)o2)[nH]n1` [Example 39, 2-(3-(6-Cyclopropylpyrazin-2-yl)-1H-indol-5-yl)-5-(1H-pyrazol-5-yl)-1,3,4-oxadiazole 2,2,2-trifluoroacetate], the IC50 in assay [1] was 51.4 nM; in assay [2], 158 nM; in assay [3] it was 19.8 nM.

Turning to `CC(C)(Nc1nnc(-c2ccc3[nH]cc(-c4cncc(C5CC5)n4)c3c2)o1)c1ccccc1` [Example 50, 5-(3-(6-cyclopropylpyrazin-2-yl)-1H-indol-5-yl)-N-(2-phenylpropan-2-yl)-1,3,4-oxadiazol-2-amine], the IC50 in assay [1] turned out to be 57.7 nM; in assay [2] (Pim-2 enzyme assay), 302 nM; in assay [3] it was 14.4 nM.

With `CC(C)(Nc1nnc(-c2ccc3[nH]cc(-c4ncccn4)c3c2)o1)c1ccccc1` [Example 52, N-(2-phenylpropan-2-yl)-5-(3-(pyrimidin-2-yl)-1H-indol-5-yl)-1,3,4-oxadiazol-2-amine 2,2,2-trifluoroacetate], the IC50 in assay [1] was determined as 70.1 nM; in assay [2] (Pim-2 enzyme assay) it was 271 nM; in assay [3] (Pim-3 enzyme assay), 40.3 nM.

As for `CC(C)Oc1cc(F)cc(-c2c[nH]c3ccc(-c4nnc(N)o4)cc23)c1` [Example 79, 5-(3-(3-fluoro-5-(1-methylethoxy)phenyl)-1H-indol-5-yl)-1,3,4-oxadiazol-2-amine], the IC50 in assay [1] came to 154 nM; in assay [2] (Pim-2 enzyme assay), 185 nM; in assay [3] (Pim-3 enzyme assay) it was 85.8 nM.

Turning to `Nc1nnc(-c2ccc3[nH]cc(-c4cnn(CCN5CCOCC5)c4)c3c2)o1` [Example 81, 5-(3-(1-(2-(4-morpholinyl)ethyl)-1H-pyrazol-4-yl)-1H-indol-5-yl)-1,3,4-oxadiazol-2-amine], the IC50 in assay [1] came to 101 nM; in assay [2] (Pim-2 enzyme assay), 273 nM; in assay [3] (Pim-3 enzyme assay) it was 147 nM.

As for `Nc1nnc(-c2ccc3[nH]cc(-c4cncc(C(=O)N5CCOCC5)c4)c3c2)o1` [Example 82, 5-(3-(5-(4-morpholinylcarbonyl)-3-pyridinyl)-1H-indol-5-yl)-1,3,4-oxadiazol-2-amine], the IC50 in assay [1] amounted to 2350 nM; in assay [2] (Pim-2 enzyme assay), 1780 nM; in assay [3] (Pim-3 enzyme assay), 2380 nM.

As to `Nc1nnc(-c2ccc3[nH]cc(-c4ccccc4F)c3c2)o1` [Example 84, 5-(3-(2-fluorophenyl)-1H-indol-5-yl)-1,3,4-oxadiazol-2-amine], the IC50 in assay [1] was 92.6 nM; in assay [2] (Pim-2 enzyme assay), 140 nM; in assay [3] (Pim-3 enzyme assay), 26 nM.

For `CC(C)Oc1cccc(-c2c[nH]c3ccc(-c4nnc(N)o4)cc23)c1` [Example 85, 5-(3-(3-(1-methylethoxy)phenyl)-1H-indol-5-yl)-1,3,4-oxadiazol-2-amine], the IC50 amounted to 225 nM in assay [1], 385 nM in assay [2] (Pim-2 enzyme assay) and 81.8 nM in assay [3] (Pim-3 enzyme assay).

Consider `CCOc1cnc(-c2c[nH]c3ccc(-c4nnc(N)o4)cc23)cn1` [Example 86, 5-(3-(5-ethoxy-2-pyrazinyl)-1H-indol-5-yl)-1,3,4-oxadiazol-2-amine], for which the results for the IC50 in assay [1], in assay [2] (Pim-2 enzyme assay) and in assay [3] (Pim-3 enzyme assay) were 279 nM, 324 nM and 122 nM, respectively.

Regarding `Cc1nc(-c2c[nH]c3ccc(-c4nnc(N)s4)cc23)ccc1F` [Example 191, 5-(3-(5-fluoro-6-methyl-2-pyridinyl)-1H-indol-5-yl)-1,3,4-thiadiazol-2-amine], in assay [3] (Pim-3 enzyme assay), the IC50 amounted to 144 nM.
